# In ChEMBL document CHEMBL3886358, “Quinolyl-containing hydroxamic acid compound and preparation method thereof, and pharmaceutical composition containing this compound and use thereof” (2015):
# Target: T1, Tyrosine-protein kinase receptor UFO (Homo sapiens, UniProt P30530)
# T1 sequence (P30530 whole entry): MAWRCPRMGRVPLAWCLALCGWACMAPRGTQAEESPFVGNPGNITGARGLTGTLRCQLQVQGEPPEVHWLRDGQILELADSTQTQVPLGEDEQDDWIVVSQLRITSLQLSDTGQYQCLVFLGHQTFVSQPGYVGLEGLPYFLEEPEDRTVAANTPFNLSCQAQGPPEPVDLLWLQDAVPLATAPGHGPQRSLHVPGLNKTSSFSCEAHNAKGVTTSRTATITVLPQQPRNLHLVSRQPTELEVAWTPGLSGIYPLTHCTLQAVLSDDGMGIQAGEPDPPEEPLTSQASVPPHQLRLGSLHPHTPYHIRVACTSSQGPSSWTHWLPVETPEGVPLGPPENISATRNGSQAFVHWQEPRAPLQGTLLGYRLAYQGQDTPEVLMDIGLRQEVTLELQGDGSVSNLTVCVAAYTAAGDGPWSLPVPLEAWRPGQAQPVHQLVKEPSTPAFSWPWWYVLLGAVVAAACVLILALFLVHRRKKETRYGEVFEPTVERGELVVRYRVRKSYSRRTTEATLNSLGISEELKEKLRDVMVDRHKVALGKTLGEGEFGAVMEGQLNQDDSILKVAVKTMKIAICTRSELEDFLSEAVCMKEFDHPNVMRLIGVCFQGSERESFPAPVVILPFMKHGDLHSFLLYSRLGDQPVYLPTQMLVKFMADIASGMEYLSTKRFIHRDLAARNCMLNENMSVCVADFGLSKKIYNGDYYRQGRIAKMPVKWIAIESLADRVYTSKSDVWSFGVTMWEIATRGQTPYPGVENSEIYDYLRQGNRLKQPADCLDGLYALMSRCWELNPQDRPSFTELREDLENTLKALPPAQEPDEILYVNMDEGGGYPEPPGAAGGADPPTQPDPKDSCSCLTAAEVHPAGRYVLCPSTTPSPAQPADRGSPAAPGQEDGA
# Experiment: Sci. USA 1988, 85(23), 9312). Specific steps were as follows: The compound of the present invention was dissolved in dimethyl sulfoxide (DMSO) to make a stock solution of 2 mM, then the stock solution was diluted with DMSO following a 7 half-log series to concentrations ranging from 2 uM to 600 pM.
# Assay type: cell-based
compound,measurement,value
COc1cc2c(Oc3ccc(NC(=O)C4(C(=O)Nc5ccc(F)cc5)CC4)cc3F)ccnc2cc1OCCCC(=O)NO,IC50,19 nM
